Results: US20230286973A1, “PROTEIN SECRETION INHIBITORS” (KEZAR LIFE SCIENCES, priority 2020, published 2023)

Columns and labels:
[1] = Liver Microsome Stability Assay (rat); details: rat liver microsomes, with NADPH, 1.0 uM compound
Description: (§1) Stability of a compound was assessed in the presence of liver microsomes from various sources—mouse, rat, monkey and human liver microsomes. 1.0 uM compound, 0.4% DMSO in 0.1 M Potassium Phosphate with 1.0 mg/mL liver microsomes, were incubated at 37° C. with or without 1 mM NADPH. The samples were quenched at 0, and 30 minutes.

[2] = test system: PD1-ss+10aa/Gaussia Luciferase; test: Dox-Induced PD1-ss-Gluc Assay; type: cell-based; details: 24 hr Dox induction; 293FRT/TO cells; read-out: 24 hr Dox Inducible PD1ssGluc 293FRT/TO: Mean IC50
Method in brief: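 Compounds were added in DMSO/media with doxycycline and incubated at 37 °C, 5% CO2, on 293 T-REx cells plated one day earlier. These cells stably express, under tetracycline-regulated control, a Gaussia luciferase fused to the PD1 signal peptide plus 10 residues. Structures drawn without stereochemistry were tested as stereoisomer mixtures.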

[3] = test system: TNFα-FL/Gaussia Luciferase; test: Dox Induced TNFα-FL-Gluc Assay; type: cell-based; details: for IC50: 24 hr Dox induction, 293FRT/TO cells, read-out: 24 hr Dox Inducible TNFaFLGluc 293FRT/TO: Mean IC50; for 24 hr Dox Inducible TNFaFLGluc 293FRT/TO: TNF/PD1: ratio of TNFaFLGluc IC50 to PD1ssGluc IC50
Method in brief: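 Stereoisomer mixtures were tested where stereochemistry is not drawn. Induction used doxycycline added together with compound dilutions in DMSO/media to Flp-In 293 T-REx cells carrying a T-REx-regulated TNFα (aa 1-233)-Gaussia luciferase construct, then incubated at 37 °C, 5% CO2.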

[4] = Liver Microsome Stability Assay (monkey); details: monkey liver microsomes, with NADPH, 1.0 uM compound
Description: as §1

[5] = test system: IL-2-FL/Gaussia Luciferase; test: Dox Induced IL2-FL-Gluc Assay; type: cell-based; details: for IC50: 24 hr Dox induction, 293FRT/TO cells, read-out: 24 hr Dox Inducible IL2FLGluc 293FRT/TO: Mean IC50; for 24 hr Dox Inducible IL2FLGluc 293FRT/TO: IL2/PD1: ratio of IL2FLGluc IC50 to PD1ssGluc IC50
Method in brief: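 Cells are plated one day ahead, then receive compound dilutions in DMSO/media with doxycycline and incubate at 37° C, 5% CO2. They are Flp-In 293 T-REx cells expressing a full-length IL-2 (amino acids 1-153)–Gaussia luciferase fusion under T-REx control.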

[6] = test system: HER3-ss+4aa/Gaussia Luciferase; test: Dox-Induced Her3-ss-Gluc Assay; type: cell-based; details: 24 hr Dox induction; 293FRT/TO cells; read-out: 24 hr Dox Inducible Her3(ss + 4)Gluc 293FRT/TO: Mean IC50
Method in brief: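 Cells were seeded a day ahead, then given compound diluted in DMSO/media with doxycycline to induce expression of the HER3 signal sequence (+4 aa)–Gaussia luciferase fusion. Incubation was at 37° C., 5% CO2, in a stable Flp-In 293 T-REx line.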

[7] = test system: multiple myeloma cell line NCI-H929; test: H929 Cell Viability Assay; type: cell-based, human; details: Homo sapiens, NCI-H929, 48 h, NCI-H929 cells, Celltiter-Glo
Method in brief: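 Luminescent ATP detection (CellTiter-Glo) after 48 hours of compound exposure measures viability. Cells were plated in RPMI 1640 containing 10% fetal bovine serum and kept at 37° C under 5% CO2.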

[8] = test system: multiple myeloma cell line U266B1; test: U266 Cell Viability Assay; type: cell-based, human; details: Homo sapiens, U-266, 48 h, U266B1 cells, Celltiter-Glo
Method in brief: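 Steps: culture in RPMI 1640 plus 10% FBS and 2 mM glutamine; plate and add compound dilutions; incubate 48 hours at 37° C., 5% CO2; add CellTiter-Glo and quantify luciferase signal.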

[9] = Liver Microsome Stability Assay (mouse); details: mouse liver microsomes, with NADPH, 1.0 uM compound
Description: as §1

[10] = Liver Microsome Stability Assay (human); details: human liver microsomes, with NADPH, 1.0 uM compound
Description: as §1

| SMILES | Liver Microsome Stability (Multiple Species): Rat - % Remaining after 30 min w/NADPH [1] | IC50 [2] | IC50 [3] | Liver Microsome Stability (Multiple Species): Monkey - % Remaining after 30 min w/NADPH [4] | IC50 [5] | IC50 [6] | EC50 [7] | EC50 [8] | Liver Microsome Stability (Multiple Species): Mouse - % Remaining after 30 min w/NADPH [9] | Liver Microsome Stability (Multiple Species): Human - % Remaining after 30 min w/NADPH [10] | 24 hr Dox Inducible TNFaFLGluc 293FRT/TO: TNF/PD1 [3] | 24 hr Dox Inducible IL2FLGluc 293FRT/TO: IL2/PD1 [5] |
| --- | --- | --- | --- | --- | --- | --- | --- | --- | --- | --- | --- | --- |
| CC(=O)N(C)CCOc1ccc(N2CCC[C@@H]2c2csc(NC(=O)c3cccn3Cc3ccnc(F)c3)n2)cc1 [Compound A117, (R)-1-((2-fluoropyridin-4-yl)methyl)-N-(4-(1-(4-(2-(N-methylacetamido)ethoxy)phenyl)pyrrolidin-2-yl)thiazol-2-yl)-1H-pyrrole-2-carboxamide] | 8.86% | 28.2 nM | 301 nM | 0.09% | 51 nM | 33.4 nM | 938 nM | > 25 µM | 0.81% | 2.64% | 10.7 | 1.8 |
| CC(=O)NCCOc1ccc(N2CCC[C@@H]2c2csc(NC(=O)c3cccn3Cc3ccnc(F)c3)n2)cc1 [Compound A121, (R)-N-(4-(1-(4-(2-acetamidoethoxy)phenyl)pyrrolidin-2-yl)thiazol-2-yl)-1-((2-fluoropyridin-4-yl)methyl)-1H-pyrrole-2-carboxamide] | 9.82% | 10.9 nM | 180 nM | 1.57% | 20.7 nM | 17.5 nM | 447 nM | > 25 µM | 7.09% | 8.26% | 16.5 | 1.9 |
| CC(=O)Nc1ccc(N2CCC[C@@H]2c2csc(NC(=O)c3cccn3Cc3cc(F)nc(F)c3)n2)cc1 [Compound A122, (R)-N-(4-(1-(4-acetamidophenyl)pyrrolidin-2-yl)thiazol-2-yl)-1-((2,6-difluoropyridin-4-yl)methyl)-1H-pyrrole-2-carboxamide] | 18.8% | 7.88 nM | 191 nM | 27.3% | 16 nM | 17.4 nM | 354 nM | 8.02 µM | 17.1% | 35.8% | 24.2 | 2 |
| NC(=O)Nc1ccc(N2CCC[C@@H]2c2csc(NC(=O)c3cccn3Cc3ccnc(F)c3)n2)cc1 [Compound A123, (R)-1-((2-fluoropyridin-4-yl)methyl)-N-(4-(1-(4-ureidophenyl)pyrrolidin-2-yl)thiazol-2-yl)-1H-pyrrole-2-carboxamide] | 44.7% | 8.21 nM | 143 nM | 31.6% | 24.3 nM | 18.1 nM | 289 nM | > 25 µM | 23.3% | 49.3% | 17.4 | 3 |
| CNC(=O)N1CC(Oc2ccc(N3CCC[C@@H]3c3csc(NC(=O)c4cccn4Cc4ccnc(F)c4)n3)cc2)C1 [Compound A125, (R)-1-((2-fluoropyridin-4-yl)methyl)-N-(4-(1-(4-((1-(methylcarbamoyl)azetidin-3-yl)oxy)phenyl)pyrrolidin-2-yl)thiazol-2-yl)-1H-pyrrole-2-carboxamide] | 24.9% | 22.5 nM | 322 nM | 10.1% | 65 nM | 28.6 nM | 1210 nM | > 25 µM | 45.1% | 26.2% | 14.3 | 2.9 |
| CC(=O)N1CCC(Oc2ccc(N3CCC[C@@H]3c3csc(NC(=O)c4cccn4Cc4ccnc(F)c4)n3)cc2C#N)CC1 [Compound A126, (R)-N-(4-(1-(4-((1-acetylpiperidin-4-yl)oxy)-3-cyanophenyl)pyrrolidin-2-yl)thiazol-2-yl)-1-((2-fluoropyridin-4-yl)methyl)-1H-pyrrole-2-carboxamide] | 0.78% | 59.5 nM | 414 nM | 0.92% | 72.5 nM | 5.03 nM | 1130 nM | > 25 µM | 17.7% | 1.21% | 6.97 | 1.2 |

Stronger by IC50 [2], values ahead:

| Liver Microsome Stability (Multiple Species): Rat - % Remaining after 30 min w/NADPH [1] | IC50 [2] | IC50 [3] | Liver Microsome Stability (Multiple Species): Monkey - % Remaining after 30 min w/NADPH [4] | IC50 [5] | IC50 [6] | EC50 [7] | EC50 [8] | Liver Microsome Stability (Multiple Species): Mouse - % Remaining after 30 min w/NADPH [9] | Liver Microsome Stability (Multiple Species): Human - % Remaining after 30 min w/NADPH [10] | SMILES | 24 hr Dox Inducible TNFaFLGluc 293FRT/TO: TNF/PD1 [3] | 24 hr Dox Inducible IL2FLGluc 293FRT/TO: IL2/PD1 [5] |
| --- | --- | --- | --- | --- | --- | --- | --- | --- | --- | --- | --- | --- |
| 37.7% | 2 nM | 39.5 nM | 18.9% | 4.93 nM | 4.14 nM | 160 nM | > 25 µM | 60.7% | 45.3% | O=C(Nc1nc([C@H]2CCCN2c2ccc(Br)cc2)cs1)c1cccn1Cc1ccnc(F)c1 [Compound A116] | 19.7 | 2.5 |
| 37.6% | 4.87 nM | 75.8 nM | 27.8% | 10.4 nM | 9.15 nM | 166 nM | > 25 µM | 31.2% | 53.1% | CN(C)C(=O)Nc1ccc(N2CCC[C@@H]2c2csc(NC(=O)c3cccn3Cc3ccnc(F)c3)n2)cc1 [Compound A124, (R)-N-(4-(1-(4-(3,3-dimethylureido)phenyl)pyrrolidin-2-yl)thiazol-2-yl)-1-((2-fluoropyridin-4-yl)methyl)-1H-pyrrole-2-carboxamide] | 15.6 | 2.1 |
| 0.26% | 5.65 nM | 107 nM | 24.4% | 10.1 nM | 10.8 nM | 278 nM | > 25 µM | 3.95% | 30.6% | COCCOc1ccc(N2CCC[C@@H]2c2csc(NC(=O)c3cccn3Cc3ccnc(F)c3)n2)cc1 [Compound A127, (R)-1-((2-fluoropyridin-4-yl)methyl)-N-(4-(1-(4-(2-methoxyethoxy)phenyl)pyrrolidin-2-yl)thiazol-2-yl)-1H-pyrrole-2-carboxamide] | 19 | 1.8 |
